Assay results published in patent US20050014780A1, “Process for preparing 5-sulfonamido-8-hydroxy-1,6-naphthyridine-7-carboxamides” (priority 2001, published 2005).

Key:
[1] = molecular target: recombinant integrase (HIV integrase) (Human immunodeficiency virus type 1 group M subtype B, UniProt P04585)
Excerpt: The present invention includes the preparation of naphthyridine carboxamides of Formula (VIII) by the process set forth above in the Summary of the Invention. […] The strand transfer assay is described in Example 193 of WO 02/30930.

[2] = oral absorption and pharmacokinetics in animal models; assay type: in vivo; conditions: compared to Compound 15 per se

| SMILES | HIV integrase inhibition (in words) [1] | oral absorption [2] | pharmacokinetics [2] |
| --- | --- | --- | --- |
| O=C(NCc1ccc(F)cc1)c1nc(N2CCCCS2(=O)=O)c2cccnc2c1O [Compound 15, 5-(1,1-dioxido-1,2-thiazinan-2-yl)-N-(4-fluorobenzyl)-8-hydroxy-1,6-naphthyridine-7-carboxamide] | potent HIV integrase inhibitor |  |  |
| O=C(NCc1ccc(F)cc1)c1nc(N2CCCCS2(=O)=O)c2cccnc2c1[O-].[Na+] [Na salt of Compound 15, Sodium salt of 5-(1,1-Dioxido-1,2-thiazinan-2-yl)-N-(4-fluorobenzyl)-8-hydroxy-1,6-naphthyridine-7-carboxamide] |  | superior oral absorption | improved pharmacokinetics |
